Measurements published in patent publication US7105508B1, “Integrin receptors antagonists” (Abbott GmbH & Co. KG, priority 1999, dated 2006).

Target: T1, integrin αvβ3 (Homo sapiens, UniProt P05106+P06756)
T1 construct: from tissue; host or cells: human placenta
Experiment: Integrin αvβ3 assay (competition with vitronectin for solid phase-bound integrin αvβ3)
Settings: competition with human vitronectin for binding to solid phase-bound integrin αvβ3 from human placenta; qualitative ranking only
Experimental: Integrin αvβ3 antagonists were identified and assessed by using an assay system based on competition between the natural integrin αvβ3 ligand vitronectin and the test substance for binding to solid phase-bound integrin αvβ3.
• Coat microtiter plates with 250 ng/ml integrin αvβ3 in 0.05 M NaHCO3 pH 9.2; 0.1 ml/well; • saturate with 1% milk powder/assay buffer; 0.3 ml/well; 0.5 h/RT • wash 3× with 0.05% Tween 20/assay buffer • test substance in 0.1% milk powder/assay buffer, 50 μl/well+0 μg/ml or 2 μg/ml human vitronectin (Boehringer Ingelheim T007) in 0.1% milk powder/assay buffer, 50 μl/well; 1 h/RT • wash 3× with 0.05% Tween 20/assay buffer • 1 μg/ml anti-human vitronectin antibody coupled to peroxidase (Kordia SAVN-APHRP) in 0.1% milk powder/assay buffer; 0.1 ml/well; 1 h/RT • wash 3× with 0.05% Tween 20/assay buffer • 0.1 ml/well peroxidase substrate • stop reaction with 0.1 ml/well 2 M H2SO4 • measure absorption at 450 nm
Integrin αvβ3: human placenta is solubilized with Nonidet, and integrin αvβ3 is affinity-purified on a GRGDSPK matrix (elution with EDTA). Contamination by integrin αIIbβ3 and human serum albumin, and the detergent and EDTA, are removed by anion exchange chromatography.
Assay buffer: 50 mM Tris pH 7.5; 100 mM NaCl; 1 mM CaCl2; 1 mM MgCl2; 10 μM MnCl2
Peroxidase substrate: mix 0.1 ml of TMB solution (42 mM TMB in DMSO) and 10 ml of substrate buffer (0.1 M Na acetate, pH 4.9) and then add 14.7 μl of 3% H2O2.
Various dilutions of the test substances are used in the assay, and the IC50 values are determined (concentration of the antagonist at which 50% of the ligand is displaced).

Structure (SMILES)	IC50 values (concentration of the antagonist at which 50% of the ligand is displaced)
CC(=O)OC1c2ccccc2C(=O)N(Cc2nc(C(=O)NCc3cc(CNc4ccccn4)cs3)cs2)c2ccccc21 (stereo not shown) [Example I.B.118, 6-Oxo-5-[(4-{[({4-[(2-pyridinylamino)methyl]-2-thienyl}methyl)-amino]carbonyl}-1,3-thiazol-2-yl)methyl]-6,11-dihydro-5H-dibenzo [b,e]azepin-11-yl acetate]	best results
CC(=O)OC1c2ccccc2C(=O)N(CC(=O)NCc2cnc(NC(=N)N)s2)c2ccccc21 (stereo not shown) [Example I.B.46, 5-(2-{[(2-{[Amino(imino)methyl]amino}-1,3-thiazol-5-yl)-methyl]amino}-2-oxoethyl)-6-oxo-6,11-dihydro-5H-dibenzo[b,e]-azepin-11-yl acetate]	best results
CC(=O)OC1c2ccccc2C(=O)N(CC(=O)NCc2ccc(Nc3nc4ccccc4[nH]3)cc2)c2ccccc21 (stereo not shown) [Example I.B.37, 5-(2-{[4-(1H-Benzimidazol-2-ylamino)benzyl]amino}-2-oxoethyl)-6-oxo-6,11-dihydro-5H-dibenzo[b,e]azepin-11-yl acetate]	best results
O=C(O)CC1c2ccccc2C(=O)N(CC(=O)NCc2ccc(NC(=O)NCc3ccccc3)cc2)c2ccccc21 (stereo not shown) [Example I.B.52, (5-{2-[(4-{[(Benzylamino)carbonyl]amino}benzyl)amino]-2-oxoethyl}-6-oxo-6,11-dihydro-5H-dibenzo[b,e]azepin-11-yl)acetic acid]	best results
